Holding throughout (format): in vivo
In experiment [1] the test system is ECHCG. The experiment is described as follows: Pre-emergence herbicidal activity, glasshouse pot test. The conditions noted are these: rate 1000 g/Ha, evaluated after 13 days, scale 0-5. In short, it runs like this: (§1)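 Seeds sown in standard soil in pots, held one day in glasshouse (24/16 °C day/night, 14 h light, 65% humidity), then sprayed with aqueous solution of compound formulated in acetone/water 50:50 with 0.5% Tween 20. Grown on under same conditions, watered twice daily; damage scored after 13 days (0 = none, 5 = total).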

The subject of experiment [2] is ALOMY. Described as above. As to conditions: rate 1000 g/Ha, evaluated after 13 days, scale 0-5. In outline:
as §1

Experiment [3] concerns ABUTH. The experiment is described as above. As to conditions: rate 1000 g/Ha, evaluated after 13 days, scale 0-5. In short, it runs like this: as §1
Experiment [4] concerns ZEAMX. The description is as above. As to conditions: rate 1000 g/Ha, evaluated after 13 days, scale 0-5. In outline:
as §1

Experiment [5] has as its system AMARE. Described as above. As to conditions: rate 1000 g/Ha, evaluated after 13 days, scale 0-5. In short, it runs like this:
as §1

In experiment [6] the test system is SETFA. The experiment is described as above. As to conditions: rate 1000 g/Ha, evaluated after 13 days, scale 0-5. In short, it runs like this:
as §1

For experiment [7], the system named is ECHCG. As to the kind of experiment: Post-emergence herbicidal activity, glasshouse pot test. As to conditions: Echinochloa crus-galli; application post-emergence; rate 1000 g/Ha; evaluated after 13 days. In outline:
(§2)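 Pot-grown seedlings sprayed 8 days after sowing with active ingredient in acetone/water (50:50) plus 0.5% Tween 20. Glasshouse at 24/16 °C day/night, 14 h light, 65% humidity, watered twice daily. Damage scored after 13 days on a 0–5 scale (5 = total damage, 0 = none).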

Experiment [8] deals with ALOMY. The experiment is described as above. As to conditions: Alopecurus myosuroides; application post-emergence; rate 1000 g/Ha; evaluated after 13 days. In short, it runs like this: as §2
Experiment [9] has as its system ABUTH. The description is as above. As to conditions: Abutilon theophrasti; application post-emergence; rate 1000 g/Ha; evaluated after 13 days. In outline: as §2
For experiment [10], the system named is ZEAMX. The description is as above. As to conditions: Zea mays; application post-emergence; rate 1000 g/Ha; evaluated after 13 days. In outline: as §2
Experiment [11] has as its system AMARE. Described as above. The conditions noted are these: Amaranthus retroflexus; application post-emergence; rate 1000 g/Ha; evaluated after 13 days. In short, it runs like this: as §2
The test system of experiment [12] is SETFA. The experiment is described as above. The conditions noted are these: Setaria faberi; application post-emergence; rate 1000 g/Ha; evaluated after 13 days. In outline: as §2

Structures are written as SMILES.
For ABUTH damage score, application pre-emergence in this document: key: 5=total damage to plant; 0=no damage to plant.
For AMARE damage score, application pre-emergence in this document: key: 5=total damage to plant; 0=no damage to plant.
For Post-emergence herbicidal activity ALOMY (damage score 0-5) in this document: key: 5=total damage to plant; 0=no damage to plant.
For Post-emergence herbicidal activity ECHCG (damage score 0-5) in this document: key: 5=total damage to plant; 0=no damage to plant.

`COC1C(O)N(c2cc(C(F)(F)F)ccn2)C(=O)N1C` (stereo not drawn) [Compound A5]: in the experiment with ECHCG [1], the “ECHCG damage score, application pre-emergence” value (from here on “ECHCG damage score”) amounted to 4. Also, the “ALOMY damage score, application pre-emergence” value (“ALOMY damage score” for short) in the experiment on ALOMY [2] is on record as 3. The “ABUTH damage score, application pre-emergence” value (“ABUTH damage score” for short) in the experiment on ABUTH [3] came to 5. Besides, the “ZEAMX damage score, application pre-emergence” value (“ZEAMX damage score” for short) in the experiment with ZEAMX [4] turned out to be 2. Also, the “AMARE damage score, application pre-emergence” value (“AMARE damage score” for short) in the experiment with AMARE [5] is reported as 5. In addition, the “SETFA damage score, application pre-emergence” value (“SETFA damage score” for short) with SETFA [6] is given as 4. Besides, the “Post-emergence herbicidal activity ECHCG (damage score 0-5)” value (“Post-emergence herbicidal activity ECHCG” for short) in the experiment on ECHCG [7] is recorded as 4. Further, the “Post-emergence herbicidal activity ALOMY (damage score 0-5)” value (shortened to “Post-emergence herbicidal activity ALOMY”) with ALOMY [8] is reported as 4. Further, the “Post-emergence herbicidal activity ABUTH (damage score 0-5)” value (“Post-emergence herbicidal activity ABUTH” below) in the experiment on ABUTH [9] came to 5. The “Post-emergence herbicidal activity ZEAMX (damage score 0-5)” value (from here on “Post-emergence herbicidal activity ZEAMX”) with ZEAMX [10] stood at 2. Also, the “Post-emergence herbicidal activity AMARE (damage score 0-5)” value (shortened to “Post-emergence herbicidal activity AMARE”) with AMARE [11] was 5. Besides, the “Post-emergence herbicidal activity SETFA (damage score 0-5)” value (“Post-emergence herbicidal activity SETFA” below) with SETFA [12] stood at 4.
For the compound `CN1C(=O)N(c2cc(C(F)(F)F)ccn2)C(O)C1O` (stereo not drawn) [Compound A7, 4,5-dihydroxy-1-methyl-3-[4-(trifluoromethyl)-2-pyridyl]imidazolidin-2-one], the “ECHCG damage score” value with ECHCG [1] was found to be 3. Besides, the “ALOMY damage score” value in the experiment on ALOMY [2] is 4. Further, the “ABUTH damage score” value in the experiment on ABUTH [3] is reported as 5. Besides, the “ZEAMX damage score” value in the experiment with ZEAMX [4] is listed as 1. Further, the “AMARE damage score” value with AMARE [5] is given as 5. In the experiment with SETFA [6], the “SETFA damage score” value stood at 4. Also, the “Post-emergence herbicidal activity ECHCG” value in the experiment on ECHCG [7] came out at 5. Also, the “Post-emergence herbicidal activity ALOMY” value in the experiment on ALOMY [8] is on record as 4. For the same compound, in the experiment on ABUTH [9], the “Post-emergence herbicidal activity ABUTH” value is recorded as 5. Further, the “Post-emergence herbicidal activity ZEAMX” value with ZEAMX [10] worked out at 4. In addition, the “Post-emergence herbicidal activity AMARE” value in the experiment with AMARE [11] is reported as 5. For the same compound, the “Post-emergence herbicidal activity SETFA” value with SETFA [12] is listed as 5.
As to `CON1C(=O)N(c2cc(C(F)(F)F)ccn2)C(O)C1C` (stereo not drawn) [Compound A8, 4-hydroxy-1-methoxy-5-methyl-3-[4-(trifluoromethyl)-2-pyridyl]imidazolidin-2-one], in the experiment with ECHCG [1], the “ECHCG damage score” value came to 4. For the same compound, in the experiment on ALOMY [2], the “ALOMY damage score” value came out at 4. The “ABUTH damage score” value in the experiment on ABUTH [3] was determined as 5. Also, the “ZEAMX damage score” value with ZEAMX [4] came to 3. In the experiment with AMARE [5], the “AMARE damage score” value amounted to 5. The “SETFA damage score” value with SETFA [6] is recorded as 5. Also, the “Post-emergence herbicidal activity ECHCG” value with ECHCG [7] was determined as 5. Moreover, the “Post-emergence herbicidal activity ALOMY” value in the experiment with ALOMY [8] came out at 5. Further, the “Post-emergence herbicidal activity ABUTH” value with ABUTH [9] worked out at 5. In the experiment on ZEAMX [10], the “Post-emergence herbicidal activity ZEAMX” value is 4. The “Post-emergence herbicidal activity AMARE” value in the experiment with AMARE [11] is 5. The “Post-emergence herbicidal activity SETFA” value in the experiment on SETFA [12] is 5.
As for `CC1C(O)N(c2cc(C(F)(F)F)c(-c3ccccn3)cn2)C(=O)N1C` (stereo not drawn) [Compound A9], in the experiment on ECHCG [1], the “ECHCG damage score” value stood at 5. Further, the “ALOMY damage score” value in the experiment with ALOMY [2] turned out to be 4. The “ABUTH damage score” value in the experiment with ABUTH [3] was determined as 5. The “ZEAMX damage score” value in the experiment with ZEAMX [4] is reported as 3. The “AMARE damage score” value in the experiment on AMARE [5] was 5. Further, in the experiment on SETFA [6], the “SETFA damage score” value amounted to 5. Moreover, in the experiment on ECHCG [7], the “Post-emergence herbicidal activity ECHCG” value amounted to 5. Further, in the experiment on ALOMY [8], the “Post-emergence herbicidal activity ALOMY” value is reported as 5. For the same compound, the “Post-emergence herbicidal activity ABUTH” value in the experiment on ABUTH [9] is reported as 5. Also, in the experiment with ZEAMX [10], the “Post-emergence herbicidal activity ZEAMX” value came to 4. In the experiment on AMARE [11], the “Post-emergence herbicidal activity AMARE” value was found to be 5. Besides, the “Post-emergence herbicidal activity SETFA” value in the experiment on SETFA [12] worked out at 5.
In the case of `CCOC1C(O)N(c2cc(C(F)(F)F)c(OC)cn2)C(=O)N1C` (stereo not drawn) [Compound A10], in the experiment with ECHCG [1], the “ECHCG damage score” value turned out to be 5. In the experiment with ALOMY [2], the “ALOMY damage score” value is 4. In addition, in the experiment on ABUTH [3], the “ABUTH damage score” value is given as 5. For the same compound, the “ZEAMX damage score” value in the experiment on ZEAMX [4] is 3. In addition, in the experiment with AMARE [5], the “AMARE damage score” value is on record as 5. Also, the “SETFA damage score” value in the experiment on SETFA [6] worked out at 5. In the experiment with ECHCG [7], the “Post-emergence herbicidal activity ECHCG” value turned out to be 5. Moreover, the “Post-emergence herbicidal activity ALOMY” value in the experiment with ALOMY [8] is on record as 5. Also, the “Post-emergence herbicidal activity ABUTH” value in the experiment on ABUTH [9] is given as 5. In addition, the “Post-emergence herbicidal activity ZEAMX” value in the experiment with ZEAMX [10] stood at 4. Further, the “Post-emergence herbicidal activity AMARE” value with AMARE [11] is 5. Further, the “Post-emergence herbicidal activity SETFA” value with SETFA [12] came to 5.
Take `CC1C(O)N(c2cc(C(F)(F)F)c(-c3cncnc3)cn2)C(=O)N1C` (stereo not drawn) [Compound A11]: the “ECHCG damage score” value in the experiment with ECHCG [1] came out at 4. In the experiment on ALOMY [2], the “ALOMY damage score” value amounted to 4. In the experiment on ABUTH [3], the “ABUTH damage score” value was determined as 5. The “ZEAMX damage score” value in the experiment with ZEAMX [4] is recorded as 3. The “AMARE damage score” value in the experiment on AMARE [5] came to 5. Further, the “SETFA damage score” value in the experiment with SETFA [6] is listed as 5. Also, in the experiment with ECHCG [7], the “Post-emergence herbicidal activity ECHCG” value turned out to be 5. Also, the “Post-emergence herbicidal activity ALOMY” value in the experiment on ALOMY [8] was determined as 4. Also, the “Post-emergence herbicidal activity ABUTH” value in the experiment with ABUTH [9] is given as 5. In addition, in the experiment on ZEAMX [10], the “Post-emergence herbicidal activity ZEAMX” value is 4. Further, in the experiment on AMARE [11], the “Post-emergence herbicidal activity AMARE” value was found to be 5. For the same compound, the “Post-emergence herbicidal activity SETFA” value in the experiment with SETFA [12] was 5.
On to `COc1cnc(N2C(=O)N(C)C(C)C2O)cc1C(F)(F)F` (stereo not drawn) [Compound A12, 5-hydroxy-1-[5-methoxy-4-(trifluoromethyl)-2-pyridyl]-3,4-dimethyl-imidazolidin-2-one], for which the “ECHCG damage score” value in the experiment on ECHCG [1] turned out to be 5. Besides, the “ALOMY damage score” value in the experiment with ALOMY [2] turned out to be 4. Further, in the experiment on ABUTH [3], the “ABUTH damage score” value is given as 5. Further, the “ZEAMX damage score” value in the experiment with ZEAMX [4] is given as 3. Moreover, the “AMARE damage score” value with AMARE [5] amounted to 5. For the same compound, in the experiment with SETFA [6], the “SETFA damage score” value is 5. Further, the “Post-emergence herbicidal activity ECHCG” value in the experiment on ECHCG [7] came to 5. In addition, the “Post-emergence herbicidal activity ALOMY” value in the experiment with ALOMY [8] worked out at 5. In the experiment with ABUTH [9], the “Post-emergence herbicidal activity ABUTH” value came out at 5. In the experiment on ZEAMX [10], the “Post-emergence herbicidal activity ZEAMX” value came to 5. Besides, the “Post-emergence herbicidal activity AMARE” value in the experiment with AMARE [11] is reported as 5. Further, the “Post-emergence herbicidal activity SETFA” value in the experiment on SETFA [12] is 5.
Consider `CCOC1C(O)N(c2cc(C(F)(F)F)c(-c3ccccc3)cn2)C(=O)N1C` (stereo not drawn) [Compound A13], for which, in the experiment on ECHCG [1], the “ECHCG damage score” value stood at 3. The “ALOMY damage score” value in the experiment on ALOMY [2] was 3. In addition, the “ABUTH damage score” value in the experiment on ABUTH [3] was found to be 5. The “ZEAMX damage score” value in the experiment on ZEAMX [4] is 1. Further, in the experiment on AMARE [5], the “AMARE damage score” value was determined as 5. The “SETFA damage score” value with SETFA [6] worked out at 3. The “Post-emergence herbicidal activity ECHCG” value with ECHCG [7] was determined as 5. Besides, in the experiment with ALOMY [8], the “Post-emergence herbicidal activity ALOMY” value is listed as 4. In the experiment on ABUTH [9], the “Post-emergence herbicidal activity ABUTH” value amounted to 5. The “Post-emergence herbicidal activity ZEAMX” value in the experiment with ZEAMX [10] worked out at 0. In addition, the “Post-emergence herbicidal activity AMARE” value in the experiment with AMARE [11] stood at 5. The “Post-emergence herbicidal activity SETFA” value with SETFA [12] came to 5.

For the origin of these results see US11608323B2 (SYNGENTA LIMITED, priority 2013, dated 2023).
